Peptide text beside a SMILES is read from it.
Experiments:
red blood cells = assay: Hemolysis test; type: cell-based, rat; conditions: 1 hour 37° C.
Protocol: Furthermore, it was confirmed whether hemolysis, in which blood cells are destroyed, occurs by treatment with the peptide of the present invention. In a state where the coagulation reaction of the collected rat blood was suppressed in a heparinized vacuum collection tube, it was transferred to an EP tube and centrifuged at 1,500 g for 10 minutes. After removing the supernatant plasma, the precipitated red blood cells were treated with 200 μl of 2.5% and 5% of the peptide of the present invention, respectively. A sample treated with 1% SDS was used as a positive control for hemolysis. Each sample was stored for 1 hour in a 37° C. incubator, and then centrifuged again at 1,500 g for 10 minutes. 200 μl of the supernatant was transferred to a 96-well plate, and the optical density was measured at a wavelength of 540 nm.

rat blood [1] = assay: Blood coagulation test: optical density of supernatant; type: cell-based; conditions: heparinized rat blood, CaCl2 added, 37° C. 10 minutes
Protocol: In addition, in order to evaluate the coagulation efficacy of the peptide of the present invention, the peptide of the Preparation Example was treated with rat blood, and its optical density was measured. Specifically, in a state where the coagulation reaction of the collected rat blood was suppressed in a heparinized vacuum collection tube, 300 μl of blood was transferred to a 15 ml conical tube, and 300 μl of the peptide of the present invention solution was added thereto and mixed gently. Then, 30 μl of 0.2 M CaCl2 solution was added thereto and incubated at 37° C. for 10 minutes to accelerate the coagulation reaction. Then, 10 ml of distilled water was carefully added thereto, and 200 μl of the uniformly dispersed supernatant was added to a 96-well plate, and the optical density was measured at a wavelength of 540 nm using a spectrophotometer. Likewise, Greenplast and RADA16 peptide preparations were used as controls.

rat blood [2] = assay: Blood coagulation test: clotting time by tube inversion; type: cell-based; conditions: 300 μl heparinized rat blood + 150 μl sample, peptides at 2.5%
Protocol: First, the clotting time of blood according to the treatment of the peptide of the present invention was evaluated. In a state where the coagulation reaction of the collected rat blood was suppressed in a heparinized vacuum collection tube, 300 μl of blood was transferred to an EP tube, and 150 μl of a solution in which the peptide of the present invention was dissolved in purified water was treated thereto. The clotting time was measured by inverting the tube at 10-second intervals and visually evaluating the flowability of the blood. As a control group, the RADA16 peptide sample and Greenplast (Greenplast Q, GC Green Cross) were used to conduct the experiment in the same manner as the peptide of the present invention.

## CCCCCCCCCCCCOS(=O)(=O)[O-].[Na+] [SDS]
Red blood cells; 1% SDS positive control
  hemolysis (optical density of supernatant at 540 nm): hemolysis occurred

## CC[C@H](C)[C@H](NC(=O)[C@H](CC(N)=O)NC(=O)CNC(=O)[C@H](C)NC(=O)[C@H](CC(C)C)NC(=O)[C@H](Cc1ccc(O)cc1)NC(=O)[C@H](C)NC(=O)[C@H](CCC(N)=O)NC(=O)[C@H](CO)NC(=O)[C@H](C)NC(=O)[C@@H](N)CO)C(=O)N[C@H](C(=O)O)[C@@H](C)O [Peptide of the present invention, SASQAYLAGNIT] (H-SASQAYLAGNIT-OH)
Red blood cells; 2.5% peptide, 200 μl
  hemolysis (optical density of supernatant at 540 nm): did not induce hemolysis
Red blood cells; 5% peptide, 200 μl
  hemolysis (optical density of supernatant at 540 nm): did not induce hemolysis

## RADA16
Rat blood [1]
  optical density (540 nm) of supernatant relative to negative control treated with distilled water: 0.7
Rat blood [2]
  Blood Clotting time: <30 s
Rat blood [2]; listed as RADA16 peptide
  Blood Clotting time: less than 30 sec

— US12673973B2, “Peptide having blood coagulation activity, and use thereof” (CAREGEN CO, LTD., priority 2021, dated 2026)
